Counter-ions that a name gives are not always drawn.
Experiments:
ZAP-70 = target: T1, ZAP-70 (Homo sapiens, UniProt P43403); experiment: ZAP-70 kinobeads assay; type: binding; details: cell lysate
T1 construct: endogenous in cells; host or cells: cell lysate
T1 sequence (P43403 1-619): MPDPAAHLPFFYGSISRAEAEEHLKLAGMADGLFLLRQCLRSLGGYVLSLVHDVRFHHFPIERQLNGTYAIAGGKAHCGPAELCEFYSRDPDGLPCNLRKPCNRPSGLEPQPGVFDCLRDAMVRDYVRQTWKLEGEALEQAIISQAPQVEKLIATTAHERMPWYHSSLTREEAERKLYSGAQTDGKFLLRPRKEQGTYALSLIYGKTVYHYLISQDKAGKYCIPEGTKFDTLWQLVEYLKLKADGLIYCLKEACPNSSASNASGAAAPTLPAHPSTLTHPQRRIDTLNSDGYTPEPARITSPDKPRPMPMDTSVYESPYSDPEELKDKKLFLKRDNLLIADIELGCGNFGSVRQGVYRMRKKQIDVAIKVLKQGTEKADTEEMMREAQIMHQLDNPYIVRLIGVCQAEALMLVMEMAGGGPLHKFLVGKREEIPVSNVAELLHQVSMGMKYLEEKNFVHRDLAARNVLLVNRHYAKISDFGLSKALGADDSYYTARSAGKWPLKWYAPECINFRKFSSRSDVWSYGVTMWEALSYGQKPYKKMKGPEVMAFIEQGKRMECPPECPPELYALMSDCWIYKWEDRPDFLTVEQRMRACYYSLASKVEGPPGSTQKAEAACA
Experimental: The compounds of the present invention as described in the previous examples can be tested in the ZAP-70 kinobeads assay as described (EP-A 1862802 and WO-A 2007/137867). Briefly, test compounds (at various concentrations) and the affinity matrix with the immobilized aminopyrido-pyrimidine ligand 24 are added to cell lysate aliquots and allowed to bind to the proteins in the lysate sample. After the incubation time the beads with captured proteins are separated from the lysate. Bound proteins are then eluted and the presence ZAP-70 is detected and quantified using a specific antibody in a dot blot procedure and the Odyssey infrared detection system.

[1] = system: Calcium Ion Release in Cells; experiment: calcium release assay (measurement of calcium ion release in cells); type: cell-based; details: calcium release assay as described in WO-A 2009/080638

IC50 (ZAP-70)	IC50 [1]	SMILES
≤ 100 nM	≤ 1000 nM	COc1ccc(Nc2nc(Nc3cc(OCCCN4CCCCC4)ccc3OC)ncc2Cl)c(NS(C)(=O)=O)c1 [Example 2, N-(2-(5-chloro-2-(2-methoxy-5-(3-(piperidin-1-yl)propoxy)phenylamino)pyrimidin-4-ylamino)-5-methoxyphenyl)methanesulfonamide]
≤ 100 nM	≤ 1000 nM	COc1ccc(Nc2nc(Nc3cnc(OC)cc3OC)ncc2Cl)c(NS(C)(=O)=O)c1 [Example 3, N-(2-(5-chloro-2-(4,6-dimethoxypyridin-3-ylamino)pyrimidin-4-ylamino)-5-methoxyphenyl)methanesulfonamide]
≤ 100 nM	≤ 1000 nM	COc1ccc(Nc2nc(Nc3ccc(OCCO)cc3OC)ncc2Cl)c(NS(C)(=O)=O)c1 [Example 4, N-(2-(5-chloro-2-(4-(2-hydroxyethoxy)-2-methoxyphenylamino)pyrimidin-4-ylamino)-5-methoxyphenyl)methanesulfonamide]
≤ 100 nM	≤ 1000 nM	COc1ccc(Nc2nc(Nc3cccc(OCC(=O)N4CCC4)c3C)ncc2Cl)c(NS(C)(=O)=O)c1 [Example 5, N-(2 (2 (3 (2 (azetidin-1-yl)-2-oxoethoxy)-2-methylphenylamino)-5-chloropyrimidin-4-ylamino)-5-methoxyphenyl)methanesulfonamide]
100 to 1000 nM	≤ 1000 nM	COc1ccc(OC)c(Nc2ncc(Cl)c(Nc3ccccc3NS(C)(=O)=O)n2)c1 [Example 16, N-(2-(5-chloro-2-(2,5-dimethoxyphenylamino)pyrimidin-4-ylamino)phenyl)methanesulfonamide hydrochloride]
100 to 1000 nM	≤ 1000 nM	COc1ccc(Nc2nc(Nc3cc(OC)c(OC)cc3OC)ncc2Cl)c(NS(C)(=O)=O)c1 [Example 29, N-(2-(5-chloro-2-(2,4,5-trimethoxyphenylamino)pyrimidin-4-ylamino)-5-methoxyphenyl)methanesulfonamide]
≤ 100 nM	≤ 1000 nM	COc1ccc(Nc2nc(Nc3ccc(OCCCN4CCCCC4)cc3OC)ncc2Cl)c(NS(C)(=O)=O)c1 [Example 30, N-(2-(5-chloro-2-(2-methoxy-4-(3-(piperidin-1-yl)propoxy)phenylamino)pyrimidin-4-ylamino)-5-methoxyphenyl)methanesulfonamide]
100 to 1000 nM	≤ 1000 nM	COc1ccc(Nc2nc(Nc3ccc(OC)c(OC)c3OC)ncc2Cl)c(NS(C)(=O)=O)c1 [Example 32, N-(2-(5-chloro-2-(2,3,4-trimethoxyphenylamino)pyrimidin-4-ylamino)-5-methoxyphenyl)methanesulfonamide hydrochloride]
≤ 100 nM	≤ 1000 nM	COc1ccc(Nc2nc(Nc3cc(OC)c(OC)cc3C)ncc2Cl)c(NS(C)(=O)=O)c1 [Example 37, N-(2-(5-chloro-2-(4,5-dimethoxy-2-methylphenylamino)pyrimidin-4-ylamino)-5-methoxyphenyl)methanesulfonamide]
100 to 1000 nM	≤ 1000 nM	COc1ccc(Nc2nc(Nc3ccc(OCCO)cc3F)ncc2Cl)c(NS(C)(=O)=O)c1 [Example 55, N-(2-(5-chloro-2-(2-fluoro-4-(2-hydroxyethoxy)phenylamino)pyrimidin-4-ylamino)-5-methoxyphenyl)methanesulfonamide]
100 to 1000 nM	≤ 1000 nM	COc1ccc(C)c(Nc2ncc(Cl)c(Nc3ccc(OC)cc3NS(C)(=O)=O)n2)c1 [Example 57, N-(2-(5-chloro-2-(5-methoxy-2-methylphenylamino)pyrimidin-4-ylamino)-5-methoxyphenyl)methanesulfonamide hydrochloride]
100 to 1000 nM	≤ 1000 nM	COc1ccc(Nc2nc(Nc3ccc(OCCN)cc3OC)ncc2Cl)c(NS(C)(=O)=O)c1 [Example 63, N-(2-(2-(4-(2-aminoethoxy)-2-methoxyphenylamino)-5-chloropyrimidin-4-ylamino)-5-methoxyphenyl)methanesulfonamide]
100 to 1000 nM	≤ 1000 nM	COc1ccc(Nc2nc(Nc3cc(OCCO)ccc3F)ncc2Cl)c(NS(C)(=O)=O)c1 [Example 64, N-(2-(5-chloro-2-(2-fluoro-5-(2-hydroxyethoxy)phenylamino)pyrimidin-4-ylamino)-5-methoxyphenyl)methanesulfonamide]
≤ 100 nM	≤ 1000 nM	COc1ccc(Nc2nc(Nc3cccc(OCCO)c3C)ncc2Cl)c(NS(C)(=O)=O)c1 [Example 65, N-(2-(5-chloro-2-(3-(2-hydroxyethoxy)-2-methylphenylamino)pyrimidin-4-ylamino)-5-methoxyphenyl)methanesulfonamide]
100 to 1000 nM	≤ 1000 nM	COc1ccc(Nc2nc(Nc3cc(OCCN)ccc3OC)ncc2Cl)c(NS(C)(=O)=O)c1 [Example 67, N-(2-(2-(5-(2-aminoethoxy)-2-methoxyphenylamino)-5-chloropyrimidin-4-ylamino)-5-methoxyphenyl)methanesulfonamide hydrochloride]
≤ 100 nM	≤ 1000 nM	COc1ccc(Nc2nc(Nc3cc(OCCO)ccc3OC)ncc2Cl)c(NS(C)(=O)=O)c1 [Example 68, N-(2-(5-chloro-2-(5-(2-hydroxyethoxy)-2-methoxyphenylamino)pyrimidin-4-ylamino)-5-methoxyphenyl)methanesulfonamide]
≤ 100 nM	≤ 1000 nM	COc1ccc(Nc2nc(Nc3ccc(OCCN)cc3F)ncc2Cl)c(NS(C)(=O)=O)c1 [Example 69, N-(2-(2-(4-(2-aminoethoxy)-2-fluorophenylamino)-5-chloropyrimidin-4-ylamino)-5-methoxyphenyl)methanesulfonamide]
≤ 100 nM	≤ 1000 nM	COc1ccc(Nc2nc(Nc3ccncc3C)ncc2Cl)c(NS(C)(=O)=O)c1 [Example 70, N-(2-(5-chloro-2-(3-methylpyridin-4-ylamino)pyrimidin-4-ylamino)-5-methoxyphenyl)methanesulfonamide]
≤ 100 nM	≤ 1000 nM	COc1ccc(Nc2nc(Nc3cnc(C)cc3C)ncc2Cl)c(NS(C)(=O)=O)c1 [Example 71, N-(2-(5-chloro-2-(4,6-dimethylpyridin-3-ylamino)pyrimidin-4-ylamino)-5-methoxyphenyl)methanesulfonamide]
100 to 1000 nM	≤ 1000 nM	COc1ccc(Nc2nc(Nc3ccncc3F)ncc2Cl)c(NS(C)(=O)=O)c1 [Example 72, N-(2-(5-chloro-2-(3-fluoropyridin-4-ylamino)pyrimidin-4-ylamino)-5-methoxyphenyl)methanesulfonamide]
≤ 100 nM	≤ 1000 nM	COc1ccc(Nc2nc(Nc3ccc(OCCO)cc3C)ncc2Cl)c(NS(C)(=O)=O)c1 [Example 73, N-(2-(5-chloro-2-(4-(2-hydroxyethoxy)-2-methylphenylamino)pyrimidin-4-ylamino)-5-methoxyphenyl)methanesulfonamide]
100 to 1000 nM	≤ 1000 nM	COc1ccc(Nc2nc(Nc3cnc(OC)cc3C)ncc2Cl)c(NS(C)(=O)=O)c1 [Example 74, N-(2-(5-chloro-2-(6-methoxy-4-methylpyridin-3-ylamino)pyrimidin-4-ylamino)-5-methoxyphenyl)methanesulfonamide]
1000 to 10000 nM	–	COC(=O)CCc1ccc(OC)c(Nc2ncc(Cl)c(Nc3ccc(OC)cc3NS(C)(=O)=O)n2)c1 [Example 115, Methyl 3-(3-(5-chloro-4-(4-methoxy-2-(methylsulfonamido)phenylamino)pyrimidin-2-ylamino)-4-methoxyphenyl)propanoate]
100 to 1000 nM	–	COc1ccc(OCCO)cc1Nc1ncc(Cl)c(Nc2cccc(F)c2NS(C)(=O)=O)n1 [Example 116, N-(2-(5-chloro-2-(5-(2-hydroxyethoxy)-2-methoxyphenylamino)pyrimidin-4-ylamino)-6-fluorophenyl)methanesulfonamide]
≤ 100 nM	–	COc1ccc(Nc2nc(Nc3cc(OCCO)ccc3OC)ncc2Br)c(NS(C)(=O)=O)c1 [Example 117, N-(2-((5-bromo-2-((5-(2-hydroxyethoxy)-2-methoxyphenyl)amino)pyrimidin-4-yl)amino)-5-methoxyphenyl)methanesulfonamide]
100 to 1000 nM	–	COc1ccc(OCCO)cc1Nc1ncc(Cl)c(Nc2cccc(C)c2NS(C)(=O)=O)n1 [Example 118, N-(2-(5-chloro-2-(5-(2-hydroxyethoxy)-2-methoxyphenylamino)pyrimidin-4-ylamino)-6-methylphenyl)methanesulfonamide]
100 to 1000 nM	–	COc1ccc(OCCO)cc1Nc1ncc(Cl)c(Nc2cccc(OC)c2NS(C)(=O)=O)n1 [Example 119, N-(2-(5-chloro-2-(5-(2-hydroxyethoxy)-2-methoxyphenylamino)pyrimidin-4-ylamino)-6-methoxyphenyl)methanesulfonamide]

From patent US20120142667A1, “PYRIMIDINE DERIVATIVES AS ZAP-70 INHIBITORS” (priority 2009, published 2012)
